Assay: in vitro
Conditions: human, hela cells, % viability

| SMILES | viability at 28.5 h, 10 µM [%] |
| --- | --- |
| Cc1nc(C)c(CCC(=O)N2CCCCC2Cn2cccn2)c(=O)[nH]1 (stereo not shown) [CBK305310] | 102 |
| CC(Oc1cccc(F)c1)C(=O)N(Cc1cccnc1)CC1CCCO1 (stereo not shown) [CBK305313] | 108 |
| Cn1c(C2CC2)nc2c1CCN(Cc1cn3cc(Cl)ccc3n1)C2 [CBK305314] | 92.8 |
| CCN(C(=O)Cc1cc(OC)ccc1Br)c1cccnc1 [CBK305318] | 97.7 |
| CC(NC(=O)CC1(N2CCOCC2)CCCC1)c1cccc(C#N)c1 (stereo not shown) [CBK305320] | 106 |
| CC(NC(=O)N1CCCN(Cc2cccs2)CC1)c1nncn1C (stereo not shown) [CBK305322] | 80.3 |
| N#Cc1cccc(C(=O)N2CCCN(Cc3ccc(Cl)cc3)CC2)c1 [CBK305323] | 95.9 |
| Cn1cc(CNCC2CCCN2c2cccnn2)c(-c2cccnc2)n1 (stereo not shown) [CBK305326] | 96.2 |
| CC(C)c1csc(C2CCN(C(=O)CCc3ccsc3)CC2)n1 [CBK305327] | 104 |
| Cc1cnn(C2CCCN(C(=O)CC3OCCc4sccc43)C2)c1 (stereo not shown) [CBK305329] | 84.6 |
| CCCc1nc(CN2CCN(c3ccc4nncn4n3)CC2)cs1 [CBK305330] | 97.7 |
| Cc1cc(C)n(CC2CCCCN2CC(=O)NC(C)c2ccco2)n1 (stereo not shown) [CBK305331] | 87.9 |
| N#Cc1c(CN2CCCC(c3noc(C4CC4)n3)C2)cn2ccccc12 (stereo not shown) [CBK305332] | 98.7 |
| Cc1cc(N2CCN(Cc3nc(C(C)(C)C)no3)CC2)nc(C(C)C)n1 [CBK305333] | 96.3 |
| Cc1cnn(CCC(=O)N2CCOC(c3nc(C(C)(C)C)n[nH]3)C2)c1 (stereo not shown) [CBK305336] | 110 |
| COc1ccc(CNC(=O)CN2CCCC(Cn3cncn3)C2)cc1 (stereo not shown) [CBK305339] | 88.9 |
| Cc1ccc(C(CNCc2cn(C)nc2-c2cccnc2)N(C)C)cc1 (stereo not shown) [CBK305343] | 109 |
| Cc1cccc(OCCNC(=O)CN2CCCC2Cn2cncn2)c1 (stereo not shown) [CBK305345] | 102 |
| CN(C(=O)c1ccccn1)C1CCN(c2ncnc3ccccc23)CC1 [CBK305346] | 91.8 |
| CCc1nc(CN2CCCC(NC(C(N)=O)c3ccccc3)C2)no1 (stereo not shown) [CBK305348] | 97.4 |
| COc1c(C)cnc(CNC2CCCN(Cc3noc(C)n3)C2)c1C (stereo not shown) [CBK305350] | 92.3 |
| Cc1cc(C)n(CC2CN(C(C)C(=O)NCc3ccco3)CCO2)n1 (stereo not shown) [CBK305351] | 101 |
| O=C(c1cn2ccccc2n1)N1CCCN(Cc2cscn2)CC1 [CBK305352] | 104 |

| SMILES | viability at 28.5 h, 10 µM [%] |
| --- | --- |
| COc1ccc(C)cc1-n1ccc(C(=O)NCC2(C)CCCS2)n1 (stereo not shown) [CBK305355] | 83.3 |
| CCc1cnc(CN(C)C2CCN(CC(=O)Nc3cccnc3)C2)o1 (stereo not shown) [CBK305358] | 92 |
| O=C(Nc1cccc(Cl)c1)N(Cc1ccncc1)CC1CCCO1 (stereo not shown) [CBK305362] | 93 |
| CCc1noc(C(C)N2CCN(CC(=O)NCc3ccco3)CC2)n1 (stereo not shown) [CBK305368] | 116 |
| Cc1cnn(CC2CCCN2C(=O)CC2OCCc3ccsc32)c1 (stereo not shown) [CBK305370] | 86.5 |
| CCc1nc(CN(C(C)=O)C2CCN(CCc3ccccn3)C2)no1 (stereo not shown) [CBK305372] | 96.7 |
| CCc1nc(CN2CCCC(NCc3ccc(C(N)=O)cc3)C2)no1 (stereo not shown) [CBK305373] | 94.2 |
| COc1ccc(C(=O)N2CCCN(Cc3ccc(C#N)cc3)CC2)cc1 [CBK305374] | 94.7 |
| CC(C)n1ccnc1CNc1cccc(OCC(=O)N2CCCC2)c1 [CBK305377] | 97 |
| COc1ccc(CNC(=O)CN2CCCCC2Cn2cccn2)cc1 (stereo not shown) [CBK305379] | 93.1 |
| CCOC(=O)c1cnn(C2CCCN(C(=O)c3cscc3C)C2)c1 (stereo not shown) [CBK305385] | 93.1 |
| CCc1cnccc1C(=O)N1CCC(NC(=O)c2cnn(C)c2)CC1 [CBK305388] | 105 |
| Cn1cc(-c2nc(C3COCCN3Cc3ccc(F)cc3)no2)cn1 (stereo not shown) [CBK305391] | 97.7 |
| CCn1c(C(C)NC2CCN(CC(=O)OC)CC2)nc2ccccc21 (stereo not shown) [CBK305396] | 97.9 |
| COc1cccc(NC(=O)N(CCCO)C2CCc3ccccc32)c1 (stereo not shown) [CBK305397] | 95 |
| CCn1cc(CN2CCCN(C(=O)c3cc(C4CC4)on3)CC2)cn1 [CBK305401] | 88.1 |
| CN(Cc1cnn(C)c1)C(=O)c1ccc(Cl)cc1Br [CBK305404] | 93 |
| CC(=O)NC(CC(=O)N1CCCC(n2cccn2)C1)c1cccs1 (stereo not shown) [CBK305405] | 94.6 |
| CCCc1[nH]ncc1C(=O)N1CCN(c2ccnc(N(C)C)n2)CC1 [CBK305406] | 96.4 |
| CCOC(=O)c1csc(C2CCCN2C(=O)CC2C=CCCC2)n1 (stereo not shown) [CBK305407] | 97.8 |
| Cn1cc(CCNC(=O)Nc2ccc(CN3CCCC3=O)cc2)cn1 [CBK305410] | 107 |
| CN(C(=O)CN1CCCCC1Cn1cccn1)C1(C#N)CCCCC1 (stereo not shown) [CBK305412] | 90.1 |
| CCOC(=O)N1CCN(Cc2ccc(OCc3nccn3C)cc2)CC1 [CBK305413] | 94 |

| SMILES | viability at 28.5 h, 10 µM [%] |
| --- | --- |
| Cc1nc(CN2C(=O)CC(Cc3cnn(C)c3)C2=O)nc2ccccc12 (stereo not shown) [CBK305415] | 105 |
| COCCc1nsc(N2CCC(Oc3cccnc3N(C)C)C2)n1 (stereo not shown) [CBK305418] | 98.8 |
| CCn1cc(C2CN(S(=O)(=O)c3sc(C)nc3C)CCO2)cn1 (stereo not shown) [CBK305420] | 96.8 |
| Cn1cc(C(=O)N2CCOCC2c2nc(-c3cccs3)no2)cn1 (stereo not shown) [CBK305422] | 113 |
| CCCCNc1cc(N2CCOC(c3cnn(CC)c3)C2)nc(N)n1 (stereo not shown) [CBK305423] | 93.8 |
| Cc1cccc(OCC(=O)NCC(c2cccs2)N2CCOCC2)c1 (stereo not shown) [CBK305426] | 90.1 |
| CC(C)NC(=O)CN1CCC(N(C)Cc2cccc(C(F)(F)F)c2)CC1 [CBK305429] | 95 |
| C#CCNS(=O)(=O)c1cccc(C(=O)NC2CCOc3ccccc32)c1 (stereo not shown) [CBK305430] | 111 |
| Cc1ccc(Cl)c(OC(C)C(=O)N(CCCO)Cc2ccncc2)c1 (stereo not shown) [CBK305432] | 109 |
| CC1c2ccsc2CCN1C(=O)COc1cccc(Br)c1 (stereo not shown) [CBK305434] | 91.9 |
| CC(Oc1cccc(C#N)c1)C(=O)N1CCCC1C(=O)NCC(F)(F)F (stereo not shown) [CBK305435] | 93.8 |
| CC(C)c1nc(CC(=O)NCCC(=O)N2CCCc3ccccc32)cs1 [CBK305437] | 98.1 |
| Cc1nc(CCNC(=O)c2nn(-c3cccc(C(C)C)c3)cc2O)cs1 [CBK305438] | 109 |
| CC(C)OC(=O)Cc1nc(CN2CCOC(c3ccc(F)cc3)C2)cs1 (stereo not shown) [CBK305439] | 119 |
| Cn1cc(-c2nc(C3COCCN3Cc3c(F)cccc3Cl)no2)cn1 (stereo not shown) [CBK305441] | 79.4 |
| Cn1cc(-c2nc(C3COCCN3C(=O)c3cccc(Cl)c3)no2)cn1 (stereo not shown) [CBK305443] | 80.1 |
| CS(=O)(=O)Nc1c[nH]nc1C1CCCN(c2cccc(F)c2C#N)C1 (stereo not shown) [CBK305444] | 95.2 |
| O=C(NCCCn1cccn1)N1CCCN(Cc2ccc(Cl)cc2)CC1 [CBK305447] | 116 |
| CCOC(=O)c1csc(C2CCCN2C(=O)CCc2ccccc2O)n1 (stereo not shown) [CBK305448] | 109 |
| COCCn1ccc(NC(=O)N2CCCC(c3cc(F)ccc3F)C2)n1 (stereo not shown) [CBK305451] | 79.6 |
| COC(C)c1nc(C)c(C(=O)NC2CCCN(c3ccn(C)n3)C2=O)s1 (stereo not shown) [CBK305454] | 100 |
| CC(C)(C)OC(=O)N1CCCC(C(=O)NC(CO)Cc2ccccn2)C1 (stereo not shown) [CBK305458] | 88.4 |
| Cc1c(C(=O)N2CCNC(=O)C2(C)C)nnn1Cc1ccc(F)cc1F [CBK305461] | 80.2 |

| SMILES | viability at 28.5 h, 10 µM [%] |
| --- | --- |
| CN(c1cccc(C#N)c1)C1CCN(c2nc3c(cnn3C)c(=O)[nH]2)C1 (stereo not shown) [CBK305462] | 91.8 |
| Cc1ncsc1C(=O)N1CCNCC1c1cccc(F)c1 (stereo not shown) [CBK305463] | 93.1 |
| Cc1cc(C(C)NC(=O)C2CCCN(S(C)(=O)=O)C2)c(C)s1 (stereo not shown) [CBK305464] | 98.4 |
| CN(CCC1CCN(c2ccncc2)CC1)C(=O)c1cc2sccc2[nH]1 [CBK305468] | 93.3 |
| Cc1ccc(C)c(CC(=O)N(CCC(=O)O)C2CCOCC2)c1 [CBK305469] | 92.3 |
| CC(C)NC(=O)CN1CCN(c2ccc(C#N)cc2Cl)CC1 [CBK305470] | 88.3 |
| Cn1cc(N2CCN(C(=O)CCOc3ccccc3)CC2)cn1 [CBK305473] | 102 |
| O=C(CN1CCC(C(O)C(=O)NC2CC2)CC1)Nc1cc(Cl)ccc1F (stereo not shown) [CBK305477] | 93.4 |
| N#Cc1ccc(S(=O)(=O)N2CCC(OCc3ccncc3)C2)cn1 (stereo not shown) [CBK305478] | 91 |
| COc1ccc2[nH]cc(C3CCN(C(=O)c4cc(C#N)c[nH]4)CC3)c2c1 [CBK305479] | 93.2 |
| Cn1cc(C(=O)CCC(=O)NC2CCCN(c3ncccn3)C2)cn1 (stereo not shown) [CBK305480] | 94.1 |
| O=C(c1ncc(F)cc1F)N1CCCCC1CN1CCOCC1 (stereo not shown) [CBK305482] | 102 |
| Cc1ncc(S(=O)(=O)N2CCC(OCc3ccncc3)C2)s1 (stereo not shown) [CBK305483] | 99.5 |
| COC(=O)c1cc(C(=O)Nc2ccc(OCCC(N)=O)cc2)c[nH]1 [CBK305486] | 103 |
| COCC1CCN(C(=O)Nc2ccc(F)c(N3CCCNC3=O)c2)C1 (stereo not shown) [CBK305487] | 100 |
| CN(C(=O)CCn1c(=O)oc2cc(Cl)ccc21)C1(C(N)=O)CCCC1 [CBK305493] | 89.1 |
| Cc1csc(S(=O)(=O)Cc2nnc(C)n2C2CC2)n1 [CBK305494] | 98.4 |
| Cn1cncc1CN1CCNC(=O)C1c1ccccc1C(F)(F)F (stereo not shown) [CBK305495] | 98 |
| Brc1ccc(C2(c3nnc(C4CC4)o3)CCOCC2)cc1 [CBK305498] | 98.2 |
| CC(C)(C)OC(=O)C1(NC(=O)Cc2cn3ccccc3n2)CCCC1 [CBK305500] | 95.9 |
| Cc1nn(C)c(C)c1C1CCCN1CC(=O)NCc1ccccn1 (stereo not shown) [CBK305501] | 94.9 |
| Cc1cc(NC(=O)CN2CCN(Cc3ccc(Cl)nc3)CC2)no1 [CBK305504] | 104 |
